Converted amounts (≈) assume the structure as drawn. A value given as a limit tells only on which side of the number the result lay.

For this series the following is noted: buffer; pH 7.4; 200.0 µM.
In the case of `Cc1ccc(CSCC(=O)Nc2ccccc2F)cc1`, the solubility (kinetic) (in general, the concentration staying in solution when a stock, usually in DMSO, is diluted into the medium) was determined as 27.6 µg/mL (≈ 95.4 µM). Regarding `Cc1cccc(N2CCN(C(=O)c3ccc4[nH]c(C)c(C)c4c3)CC2)c1C`, the kinetic solubility was 4.2 µg/mL (≈ 11.6 µM). In the case of `COC(=O)CNC(c1ccccc1)c1cc(Br)ccc1N` (stereo unspecified), the kinetic solubility was found to be 5.5 µg/mL (≈ 15.7 µM). On to `CC(=O)Nc1c2c(nn1-c1ccccc1C)CS(=O)C2` (stereo unspecified), for which the solubility (kinetic) is > 43.4 µg/mL.

As to `O=C(COc1ncnc2sccc12)NC1CCCCC1`, the solubility (kinetic) is > 43.7 µg/mL. Turning to `NC(=O)C1CCCN(C(=S)NCc2ccc3c(c2)OCO3)C1` (stereo unspecified), the solubility (kinetic) is > 48.2 µg/mL. For the compound `CCN(CC)CCNC(=O)C(=O)Nc1ccc(C(=O)OC)cc1`, the kinetic solubility is > 48.2 µg/mL. Regarding `Cc1cccn2c(=O)c(C(=O)NC3CCCCC3)c(O)nc12`, the solubility (kinetic) came to 5.4 µg/mL (≈ 17.9 µM). `COc1cc(/C(O)=C(\C#N)c2nc3ccccc3[nH]2)cc(OC)c1OC`: the solubility (kinetic) was 7.1 µg/mL (≈ 20.2 µM). The compound `COc1ccc(C(=O)O/N=C(\N)c2cccc(C)c2)cc1OC` displayed a kinetic solubility of 14.7 µg/mL (≈ 46.8 µM). `CCCCC1(C)NC(=O)N(CC(=O)N2CCc3ccccc32)C1=O` (stereo unspecified): the kinetic solubility was > 49.4 µg/mL.

The compound `NS(=O)(=O)c1ccc(N2CCN(S(=O)(=O)Cc3ccccc3)CC2)nc1` displayed a solubility (kinetic) of 4.1 µg/mL (≈ 10.3 µM).

Compound `COc1ccccc1C(=O)NCCSCc1c(F)cccc1Cl` gave a solubility (kinetic) of 13.6 µg/mL (≈ 38.4 µM). `CC(C)[C@H](NC(=O)c1ccc(Cl)c([N+](=O)[O-])c1)C(=O)O`: the kinetic solubility is > 45.1 µg/mL.

As for `O=C1C(Nc2ccccc2)=CC(c2ccc(O)cc2)N1c1ccccc1` (stereo unspecified), the solubility (kinetic) turned out to be 2 µg/mL (≈ 5.84 µM). Consider `CC(C)(C)C(=O)NCCCNc1ccc([N+](=O)[O-])cc1`, for which the solubility (kinetic) was 38.3 µg/mL (≈ 137 µM). For the compound `CC1CCN(C(=O)c2ccc(S(=O)(=O)N3CCOCC3)cc2)CC1`, the kinetic solubility is 43.2 µg/mL (≈ 123 µM). Next, `O=C(OCc1ccccc1Cl)c1cc([N+](=O)[O-])ccc1N1CCOCC1`: 3.4 µg/mL (≈ 9.02 µM); `O=C1C2CCCCN2C(=O)N1CCCCN1CCN(c2cccc(Cl)c2)CC1` (stereo unspecified): 54.2 µg/mL (≈ 134 µM). As for `Cc1cccc(-n2c(=S)[nH]c3ccccc3c2=O)n1`, the kinetic solubility was > 40.4 µg/mL. Regarding `COC(=O)c1ccc(C(=O)OC)c(NC(=O)C(C)(C)C)c1`, the solubility (kinetic) worked out at 3.9 µg/mL (≈ 13.3 µM). Take `Cc1ccc(S(=O)(=O)N2CCN(CC(=O)N3CCCC3)CC2)c(C)c1`: the kinetic solubility is > 54.8 µg/mL. Next, `COc1ccc(NC(=O)CSc2nccn2Cc2ccco2)c(OC)c1`: 51.9 µg/mL (≈ 139 µM); `Cc1ccc(C)c(OCC(=O)NC2CCCCCC2)c1`: 3.8 µg/mL (≈ 13.8 µM); `COc1ccccc1CNC(=O)CC1Sc2ccccc2NC1=O` (stereo unspecified): 1.7 µg/mL (≈ 4.96 µM). In turn, `CC1(C)CC2CC(C)(CN2Cc2cccc([N+](=O)[O-])c2)C1` (stereo unspecified) gave a solubility (kinetic) of 5.2 µg/mL (≈ 18 µM). For the compound `COCCCNC(=S)N1CCC(C(=O)c2ccc(Cl)cc2)CC1`, the solubility (kinetic) is > 53.2 µg/mL. In the case of `O=C(NCCNC(=O)c1ccccc1Cl)c1ccco1`, the kinetic solubility is 39.7 µg/mL (≈ 136 µM). Compound `COc1ccccc1NC(=O)Nc1nc2ccc(S(N)(=O)=O)cc2s1` displayed a kinetic solubility of 1.6 µg/mL (≈ 4.23 µM). As for `CCOC(=O)c1ccc(NC(=S)NCCCn2ccnc2)cc1`, the kinetic solubility is > 49.9 µg/mL. For the compound `CN(C(=O)c1ccccc1OCc1ccc(Cl)cc1)c1ccccc1`, the kinetic solubility amounted to 10.7 µg/mL (≈ 30.4 µM). `Cc1cc(-c2csc3nc[nH]c(=S)c23)cc(C)c1C` yielded a kinetic solubility of 3.1 µg/mL (≈ 10.8 µM). As to `CC1=CC(C)(C)NC(=S)N1c1ccc(C)c(C)c1`, the solubility (kinetic) came to 2.1 µg/mL (≈ 8.06 µM). On to `COc1cc(OC)c(CNC2CCCCCC2)cc1Br`, for which the kinetic solubility is > 51.3 µg/mL. In turn, `Cc1cc(C=C2C(=O)NC(=O)NC2=O)c(C)n1-c1cccnc1` displayed a kinetic solubility of 10.6 µg/mL (≈ 34.2 µM). Consider `O=C1CSc2ccc(C(=O)NCc3ccccn3)cc2N1`, for which the solubility (kinetic) was > 44.9 µg/mL. The same measure for `CCN(CC)S(=O)(=O)c1cccc(C(=O)NC(C(=O)NCCc2ccccn2)C(C)C)c1` (stereo unspecified): > 69.1 µg/mL. In the case of `Cc1cc(C)nc(NC(=O)c2ccc(C)o2)n1`, the kinetic solubility is > 34.7 µg/mL. Next, `COc1ccc(NC(=O)COC(=O)C2=COCCO2)cc1OC`: > 48.5 µg/mL; `C=CCSc1nc2sc3c(c2c(=O)[nH]1)CC(C)(CC)OC3` (stereo unspecified): 0.5 µg/mL (≈ 1.55 µM); `NC(=O)CN1C(=O)C(=O)N(Cc2ccc(Cl)cc2)C1=O`: > 44.4 µg/mL. Turning to `O=C(O)C1CCN(S(=O)(=O)c2ccc3c(c2)OCCCO3)CC1`, the solubility (kinetic) was > 51.2 µg/mL. The compound `COC(=O)c1ccccc1NC(=O)c1cc[n+](C)cc1` returned a solubility (kinetic) of 26.8 µg/mL. Consider `COc1ccccc1CCNC(=O)c1c(C)nn(CC(C)C)c1Cl`, for which the solubility (kinetic) is > 52.5 µg/mL.

In the case of `O=C1/C(=C\c2cccc(O)c2)SC(=S)N1Cc1ccccc1`, the solubility (kinetic) is < 0.7 µg/mL. As to `COc1ccccc1OCc1nc(C#N)c(N2CCCC2)o1`, the kinetic solubility came to 39.1 µg/mL (≈ 131 µM). Turning to `Cc1cc(C)n(-c2cccc(C(=O)O)c2)n1`, the kinetic solubility is > 32.4 µg/mL. Compound `Cc1ccc(C)c(OCCC(=O)OCC(=O)NC(=O)NC2CCCCC2)c1` registered a kinetic solubility of 3.9 µg/mL (≈ 10.4 µM). Next, `O=C(Cc1cccs1)NCCc1ccc(Cl)cc1`: 40.5 µg/mL (≈ 145 µM); `O=S(=O)(c1ccccc1C(F)(F)F)N1CCN(c2ncnc3sccc23)CC1`: 4.6 µg/mL (≈ 10.7 µM); `Cc1csc(NC(=O)Cc2ccc(F)cc2)n1`: > 37.5 µg/mL.

The values are drawn from PubChem BioAssay AID1996.
